Measurements reported in patent US20240182603A1, “SULFUR-S[…] TO STABILIZE OLIGOSACCHARIDE” (Brandeis University, priority 2021, published 2024).

System: HIV broadly neutralizing antibody 2G12
Assay: STD-NMR (Saturation Transfer Difference NMR) binding analysis with 2G12 IgG
Details: for mannose unit showing greatest saturation transfer (STD): pH 6.7 deuterated phosphate buffered saline, saturation time 3 s; for recognition by neutralizing HIV antibody 2G12: summary in Discussion, contacts similar to natural oligomannose
Description: With these S-Man3 and S-Man4 derivatives in hand, their recognition by HIV broadly neutralizing antibody 2G12 was studied. 2G12 binds primarily to the linear trimannose (D1) arm of Man9GlcNAc2. […] The temperature was 298 K for S-Man3 14 and 293 K for S-Man4 21 in order to move the HDO peak to avoid covering an anomeric resonance. The experiments were performed without suppression of the residual HDO signal. On-resonance frequencies of 0.86 ppm δ (protein aliphatic) and 7 ppm δ (protein aromatic) were applied for S-Man3 14 and […] S-Man4 21, respectively, in both cases with a saturation time of 3 s and an off-resonance frequency of 40 ppm δ.
In the case of the Man4 derivative, negligible STD is observed for the reducing-terminal mannose unit.

[1] = 25 μM 2G12 IgG, 200:1 sugar:antibody

SMILES | mannose unit showing greatest saturation transfer (STD) [1] | recognition by neutralizing HIV antibody 2G12 | STD observed for the reducing-terminal mannose unit (25 μM 2G12 IgG, 200:1 sugar:antibody, 293 K)
NCCO[C@H]1O[C@H](CO)[C@@H](O)[C@H](O)[C@@H]1S[C@H]1O[C@H](CO)[C@@H](O)[C@H](O)[C@@H]1O[C@H]1O[C@H](CO)[C@@H](O)[C@H](O)[C@@H]1O [compound 14, 2-aminoethyl-[α-D-mannopyranosyl-(1→2)-2-S-{α-D-mannopyranosyl-(1→2)}]-α-D-mannopyranoside] | greatest saturation transfer is seen for the non-reducing mannose unit | recognized | 
[N-]=[N+]=NC1CCC(O[C@@H]2OC(CO)[C@@H](O)[C@H](O[C@H]3OC(CO)[C@@H](O)[C@H](O)C3O[C@H]3OC(CO)[C@@H](O)[C@H](O)C3S[C@H]3OC(CO)[C@@H](O)[C@H](O)C3O)C2O)CC1 (stereo partly drawn) [compound 21, Trans-azidocyclohexyl-3-O-[{α-D-mannopyranosyl-(1→2)}-2-O-{α-D-mannopyranosyl-(1→2)}-2-S-{α-D-mannopyranosyl-(1→2)}]-β-D-mannopyranoside] | greatest saturation transfer is seen for the non-reducing mannose unit | recognized | negligible
